{
  "source": "patent US7419667B2",
  "about": "“Drug for cancer therapy” (Morinaga Milk Industry Co. Ltd., priority 2004, dated 2008)",
  "system": "human Burkitt lymphoma Raji cells",
  "assay": "Test Example 5: effect on cytotoxic activity of rituximab and complement, PI flow cytometry (FIG. 1)",
  "type": "cell-based",
  "conditions": "rituximab + 10% human normal serum (AB type), sample 1.0 mg/ml final, 1 hour",
  "source_text": "The lactoferrin hydrolysate mixture prepared in Preparation Example 1 was used as Sample A, and the lactoferrin hydrolyzed peptide (lactoferrin partial peptide) prepared in Preparation Example 2 was used as Sample B. Moreover, as control samples, commercially available bovine lactoferrin (Morinaga Milk Industry Co., Ltd.) was used as Control A, and protamine sulfate was used as Control B.\nRaji cells in the logarithmic growth phase were used as target cells. Raji cells collected by centrifugation of a cell suspension were suspended in fresh culture broth (RPMI 1640, 10% FCS), counted and then added to a 24-well plate in an amount of 1.0×10^5 cells/well. To each well, rituximab ([…]) and 1.0 mg/ml as a final concentration of Sample A, Sample B, Control A or Control B (or Medium [culture broth] instead of the sample) were added, and then human normal serum (AB type) was added at a final concentration of 10%. Then, the cells were cultured in a CO2 incubator for 1 hour, and PI (propidium iodide, 1 mg/ml) was added during the last 15 minutes of the culture. […] The Raji cells that died during the culture were counted by analyzing the suspension with a flow cytometer (FACScan) utilizing the fact that dead cells are positive in the nuclear staining with PI.\nIn this test, the cytotoxic activity was calculated in accordance with the following equation. […]",
  "data": [
    {"substance": "protamine sulfate [Control B]", "values": [
      {"measurement": "cytotoxic activity [number of dead cells (%)] relative to Medium (culture broth)", "value": "such increase of the activity was not observed"}
    ]}
  ]
}
